This note sets out measurements from patent US20260069571A1, “DDR1 AND DDR2 INHIBITORS FOR THE TREATEMENT OF CANCER AND FIBROTIC DISEASES” (REDX PHARMA PLC, priority 2021, published 2026).

One test deals with Recombinant human DDR2 (Homo sapiens (Human), UniProt Q16832). In words: LanthaScreen Eu Kinase Binding Assay, DDR2. As to conditions: DDR2 1.75 nM (aa427-855, GST tag), Kinase Tracer 178 10 nM; for IC50: read-out: DDR2 pIC50 (converted). The method, boiled down: (§1)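 GST-tagged kinase domains (DDR1 aa440-876 at 2.5 nM; DDR2 aa427-855 at 1.75 nM) were preincubated 30 min at room temperature with compound in HEPES pH 7.3 buffer. Then 1 nM Eu-anti-GST plus Tracer 178 (5 nM DDR1, 10 nM DDR2) were added; after 60 min, TR-FRET gave IC50 by four-parameter fit, ≥2 replicates.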

The target in the next test is Recombinant human DDR1 (Homo sapiens (Human), UniProt Q08345). In words: LanthaScreen Eu Kinase Binding Assay, DDR1. As to conditions: DDR1 2.5 nM (aa440-876, GST tag), Kinase Tracer 178 5 nM; for IC50: read-out: DDR1 pIC50 (converted). The method, boiled down: as §1

Bounds are passed on as bounds.

Sequence of Recombinant human DDR1 (Q08345 other isoform, or with tags, fused parts or gaps): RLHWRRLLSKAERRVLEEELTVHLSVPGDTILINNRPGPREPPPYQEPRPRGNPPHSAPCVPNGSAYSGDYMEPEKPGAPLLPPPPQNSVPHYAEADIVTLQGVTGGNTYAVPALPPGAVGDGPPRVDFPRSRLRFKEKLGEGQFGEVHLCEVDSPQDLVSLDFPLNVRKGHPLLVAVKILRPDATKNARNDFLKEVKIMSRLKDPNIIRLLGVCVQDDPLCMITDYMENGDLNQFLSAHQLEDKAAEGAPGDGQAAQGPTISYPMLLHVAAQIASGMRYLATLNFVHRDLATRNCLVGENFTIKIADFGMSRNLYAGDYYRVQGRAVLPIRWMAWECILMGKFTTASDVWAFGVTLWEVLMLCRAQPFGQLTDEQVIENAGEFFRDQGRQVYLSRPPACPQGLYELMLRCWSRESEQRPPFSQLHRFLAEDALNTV
Sequence of Recombinant human DDR2 (Q16832 427-855): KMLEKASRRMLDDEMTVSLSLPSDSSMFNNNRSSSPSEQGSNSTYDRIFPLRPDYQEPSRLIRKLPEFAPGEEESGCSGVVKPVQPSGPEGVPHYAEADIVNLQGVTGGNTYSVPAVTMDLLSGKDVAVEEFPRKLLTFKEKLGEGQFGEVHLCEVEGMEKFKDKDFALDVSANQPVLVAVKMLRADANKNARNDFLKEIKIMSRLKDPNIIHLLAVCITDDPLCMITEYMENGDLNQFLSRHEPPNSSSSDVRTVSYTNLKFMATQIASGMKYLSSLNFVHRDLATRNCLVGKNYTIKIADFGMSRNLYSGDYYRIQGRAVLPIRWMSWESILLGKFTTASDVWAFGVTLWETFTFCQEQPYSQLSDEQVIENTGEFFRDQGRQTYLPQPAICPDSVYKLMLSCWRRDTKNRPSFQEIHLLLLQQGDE

On to `Cc1n[nH]c2nc(Nc3cccc4c3C(=O)N(CC(=O)NCC(F)(F)F)C4)ccc12` [Example 61, 2-[7-[(3-methyl-1H-pyrazolo[3,4-b]pyridin-6-yl)amino]-1-oxo-isoindolin-2-yl]-N-(2,2,2-trifluoroethyl)acetamide], for which the “DDR2 pIC50” value on Recombinant human DDR2 is reported as “D (pIC50≤6)”. The IC50 at Recombinant human DDR1 was 0.1 to 1 µM.

Regarding `Cc1n[nH]c2cc(Nc3cccc4c3C(=O)N(CC(=O)NCC(F)(F)F)C4)cc(F)c12` [Example 62, 2-[7-[(4-fluoro-3-methyl-1H-indazol-6-yl)amino]-1-oxo-isoindolin-2-yl]-N-(2,2,2-trifluoroethyl)acetamide], the “DDR2 pIC50” value at Recombinant human DDR2 was “A (pIC50>8)”. The “DDR1 pIC50” value on Recombinant human DDR1 is on record as “A (pIC50>8)”.

Take `Cc1n[nH]c2cc(Nc3cccc4c3C(=O)N(CC(=O)N[C@@H](C)C(F)(F)F)C4)cc(F)c12` [Example 63, 2-[7-[(4-fluoro-3-methyl-1H-indazol-6-yl)amino]-1-oxo-isoindolin-2-yl]-N-[(1S)-2,2,2-trifluoro-1-methyl-ethyl]acetamide]: the “DDR2 pIC50” value on Recombinant human DDR2 is on record as “A (pIC50>8)”. Also, the “DDR1 pIC50” value on Recombinant human DDR1 is “A (pIC50>8)”.

In the case of `Cc1n[nH]c2cc(Nc3cccc4c3C(=O)N(CC(=O)N3CCC[C@H]3C(F)(F)F)C4)cc(F)c12` [Example 64, 7-[(4-fluoro-3-methyl-1H-indazol-6-yl)amino]-2-[2-oxo-2-[(2S)-(trifluoromethyl)pyrrolidin-1-yl]ethyl]isoindolin-1-one], the IC50 on Recombinant human DDR2 and on Recombinant human DDR1 was below 0.01 µM in each case.

Take `Cc1n[nH]c2cc(Nc3cccc4c3C(=O)N(CC(=O)Nc3cnoc3)C4)cc(F)c12` [Example 65, 2-[7-[(4-fluoro-3-methyl-1H-indazol-6-yl)amino]-1-oxo-isoindolin-2-yl]-N-isoxazol-4-yl-acetamide]: the “DDR2 pIC50” value at Recombinant human DDR2 is recorded as “D (pIC50≤6)”. Moreover, the IC50 on Recombinant human DDR1 is 0.1 to 1 µM.

For `Cc1n[nH]c2cc(Nc3cccc4c3C(=O)N(CC(=O)N[C@@H](C)C(F)(F)F)C4)cnc12` [Example 66, 2-[7-[(3-methyl-1H-pyrazolo[4,3-b]pyridin-6-yl)amino]-1-oxo-isoindolin-2-yl]-N-[(1S)-2,2,2-trifluoro-1-methyl-ethyl]acetamide], the “DDR2 pIC50” value at Recombinant human DDR2 is listed as “A (pIC50>8)”. Also, the “DDR1 pIC50” value at Recombinant human DDR1 is reported as “A (pIC50>8)”.

Consider `Cc1n[nH]c2cc(Nc3cccc4c3C(=O)N(CC(=O)N3CCC[C@H]3C(F)(F)F)C4)cnc12` [Example 67, 7-[(3-methyl-1H-pyrazolo[4,3-b]pyridin-6-yl)amino]-2-[2-oxo-2-[(2S)-(trifluoromethyl)pyrrolidin-1-yl]ethyl]isoindolin-1-one], for which the IC50 at Recombinant human DDR2 and on Recombinant human DDR1 was below 0.01 µM throughout.

On to `Cc1n[nH]c2cc(Nc3cccc4c3C(=O)N(CC(=O)N3CCO[C@@H](C(F)(F)F)C3)C4)cnc12` [Example 68, 7-[(3-methyl-1H-pyrazolo[4,3-b]pyridin-6-yl)amino]-2-[2-oxo-2-[(2R)-(trifluoromethyl)morpholin-4-yl]ethyl]isoindolin-1-one], for which the IC50 was 0.1 to 1 µM on Recombinant human DDR2 and 0.01 to 0.1 µM on Recombinant human DDR1.

Take `Cc1n[nH]c2cc(Nc3cccc4c3C(=O)N(CC(=O)N3CCO[C@H](C(F)(F)F)C3)C4)cnc12` [Example 69, 7-[(3-methyl-1H-pyrazolo[4,3-b]pyridin-6-yl)amino]-2-[2-oxo-2-[(2S)-(trifluoromethyl)morpholin-4-yl]ethyl]isoindolin-1-one]: the IC50 at Recombinant human DDR2 was 0.1 to 1 µM; on Recombinant human DDR1, 0.01 to 0.1 µM.

`Cc1n[nH]c2cc(Nc3cccc4c3C(=O)N(CC(=O)N3CCOC[C@H]3C(F)(F)F)C4)cnc12` [Example 70, 7-[(3-methyl-1H-pyrazolo[4,3-b]pyridin-6-yl)amino]-2-[2-oxo-2-[(3S)-(trifluoromethyl)morpholin-4-yl]ethyl]isoindolin-1-one]: the IC50 at Recombinant human DDR2 is at least 1 µM; on Recombinant human DDR1 it was 0.1 to 1 µM.

As for `Cc1n[nH]c2cc(Nc3cccc4c3C(=O)N(CC(=O)N3CCOC[C@@H]3C(F)(F)F)C4)cnc12` [Example 71, 7-[(3-methyl-1H-pyrazolo[4,3-b]pyridin-6-yl)amino]-2-[2-oxo-2-[(3R)-(trifluoromethyl)morpholin-4-yl]ethyl]isoindolin-1-one], the IC50 at Recombinant human DDR2 and on Recombinant human DDR1 was 0.01 to 0.1 µM each time.

Regarding `C[C@H](NC(=O)CN1Cc2cccc(Nc3cnc4[nH]ncc4c3)c2C1=O)C(F)(F)F` [Example 73, 2-[1-oxo-7-(1H-pyrazolo[3,4-b]pyridin-5-ylamino)isoindolin-2-yl]-N-[(1S)-2,2,2-trifluoro-1-methyl-ethyl]acetamide], the figures for the IC50 at Recombinant human DDR2 and at Recombinant human DDR1 were 0.01 to 0.1 µM and below 0.01 µM, respectively.

As to `O=C1c2c(cccc2Nc2cnc3[nH]ncc3c2)CN1CC(=O)N1CCC[C@H]1C(F)(F)F` [Example 74, 2-[2-oxo-2-[(2S)-(trifluoromethyl)pyrrolidin-1-yl]ethyl]-7-(1H-pyrazolo[3,4-b]pyridin-5-ylamino)isoindolin-1-one], the IC50 on Recombinant human DDR2 and on Recombinant human DDR1 was below 0.01 µM each time.

`O=C(CN1Cc2cccc(Nc3cnc4[nH]ncc4c3)c2C1=O)NC1CC1(F)F` (stereo not shown) [Example 75, N-(2,2-difluorocyclopropyl)-2-[1-oxo-7-(1H-pyrazolo[3,4-b]pyridin-5-ylamino)isoindolin-2-yl]acetamide]: the IC50 at Recombinant human DDR2 was 0.1 to 1 µM; at Recombinant human DDR1 it was 0.01 to 0.1 µM.

With `CN(CC(F)(F)F)C(=O)CN1Cc2cccc(Nc3cnc4[nH]ncc4c3)c2C1=O` [Example 76, N-methyl-2-[1-oxo-7-(1H-pyrazolo[3,4-b]pyridin-5-ylamino)isoindolin-2-yl]-N-(2,2,2-trifluoroethyl)acetamide], the IC50 at Recombinant human DDR2 and at Recombinant human DDR1 was 0.01 to 0.1 µM throughout.

For `C[C@H](N(C)C(=O)CN1Cc2cccc(Nc3cnc4[nH]ncc4c3)c2C1=O)C(F)(F)F` [Example 77, N-methyl-2-[1-oxo-7-(1H-pyrazolo[3,4-b]pyridin-5-ylamino)isoindolin-2-yl]-N-[(1S)-2,2,2-trifluoro-1-methyl-ethyl]acetamide], the IC50 on Recombinant human DDR2 and at Recombinant human DDR1 was 0.01 to 0.1 µM throughout.

With `Cc1n[nH]c2cc(N(C)c3cccc4c3C(=O)N(CC(=O)NCC(F)(F)F)C4)ccc12` [Example 78, 2-[7-[methyl-(3-methyl-1H-indazol-6-yl)amino]-1-oxo-isoindolin-2-yl]-N-(2,2,2-trifluoroethyl)acetamide], the IC50 at Recombinant human DDR2 was 0.1 to 1 µM; on Recombinant human DDR1 it was 0.01 to 0.1 µM.

Turning to `Cn1ncc2cc(Nc3cccc4c3C(=O)N(CC(=O)NCC(F)(F)F)C4(F)F)ccc21` [Example 79, 2-[1,1-difluoro-4-[(1-methylindazol-5-yl)amino]-3-oxo-isoindolin-2-yl]-N-(2,2,2-trifluoroethyl)acetamide], the “DDR2 pIC50” value at Recombinant human DDR2 is recorded as “D (pIC50≤6)”. Also, the IC50 at Recombinant human DDR1 was 0.01 to 0.1 µM.

For the molecule `CC(C)c1n[nH]c2cc(Nc3cccc4c3C(=O)N(CC(=O)NCC(F)(F)F)C4)ccc12` [Example 80, 2-[7-[(3-isopropyl-1H-indazol-6-yl)amino]-1-oxo-isoindolin-2-yl]-N-(2,2,2-trifluoroethyl)acetamide], the IC50 on Recombinant human DDR2 and at Recombinant human DDR1 was 0.1 to 1 µM each time.

Take `O=C(CN1Cc2cccc(Nc3ccc4cn[nH]c4c3)c2C1=O)NCC(F)(F)F` [Example 81, 2-[7-(1H-indazol-6-ylamino)-1-oxo-isoindolin-2-yl]-N-(2,2,2-trifluoroethyl)acetamide]: the IC50 was 0.1 to 1 µM at Recombinant human DDR2 and 0.01 to 0.1 µM at Recombinant human DDR1.
